Laboratory results: patent US12357668B2, “Anticancer activity of Buddleja saligna compositions” (University of Pretoria, priority 2019, dated 2025)
Converted amounts (≈) assume the structure as drawn. Values belong to the molecule of their own block, whether it stands above or below them. Numbered stars: 1 amine (or outer) side, 2 acyl side, 3 side chain; on linkers, the order of the positions; unused ones are H or OH. Bridge positions count the residues as written; N and C are the ends. Square brackets hold non-standard residues; d marks the D form. Peptide text beside a SMILES is read from it. I, II: the chains in the order shown. Actinocin(9to1) = Cc1c2oc3c(C)ccc(C(=O)[*:1])c3nc-2c(C(=O)[*:2])c(N)c1=O; NMeV = CN[C@H](C(=O)O)C(C)C; Sar = CNCC(=O)O

How the values were obtained:
[1] = tested on: HaCat (human keratinocytes) cells; experiment: XTT antiproliferative assay, human keratinocytes; type: cell-based; details: 72 h exposure
Description: The cell lines were maintained in culture flasks containing Dulbecco's modified Eagle's medium (DMEM) supplemented with 10%, heat-inactivated fetal bovine serum (FBS) and 100 U/ml penicillin, 100 μg/ml streptomycin and 250 μg/ml fungizone at 37° C. and 5%, CO2. Cells were sub-cultured once an 80%, confluent monolayer had formed using trypsin-EDTA (0.25%, trypsin containing 0.01%, EDTA).
To investigate the antiproliferative potential of B. saligna and DT-BS-01, the XTT assay was performed. Antiproliferative activity was measured using the method as described by Berrington and Lall (2012) using the XTT Cell Proliferation Kit II. […] Thereafter, 50 μl XTT (0.3 mg/ml) was added to the cells and incubated for 2 h where after the absorbance was measured at 490 nm (reference wavelength of 690 nm) using a BIO-TEK power-wave XS plate reader (A.D.P, Weltevreden Park, South Africa). […] The samples were tested in triplicate and the percentage cell viability was calculated using the following equation.
Where Abscontrol is the absorbance of XTT+vehicle control and Absample is the absorbance of (XTT+sample OR positive control)−(blank values of corresponding sample). The fifty percent inhibitory concentrations (IC50) were calculated from the % cell viability using the GraphPad Prism 4 software. […]

UCT-MEL-1 cells [2] = experiment: Light microscopy (haematoxylin and eosin staining), cell morphology; type: cell-based, human; details: 0.025 μg/ml, 48 h
Description: (§1) One of the hallmarks of cancer cells is their ability to evade apoptosis, therefore providing a suitable target for the destruction of cancer cells. The effect of B. saligna and DT-BS-01 on the morphology of UCT-MEL-1 and HaCat cells was determined using light microscopy. Light microscopy (haematoxylin and eosin staining) was used to determine the qualitative effect B. saligna (30 and 60 μg/ml) and DT-BS-01 (5 and 20 μg/ml) on the morphology of UCT-MEL-1 and HaCat cells. […] Exponentially growing UCT-MEL-1 and HaCat cells were seeded at 1.0×10^5 cells per well in a 6-well plate and incubated for 24 h at 37° C. at 5% CO2 to allow for cell adherence. […] Cells were stained (in the 6-well plate) as described by Berrington & Lall (2012). After staining, sterile PBS was added to all the wells and immediately analysed for morphological changes using a light microscope (Zeiss Primovert).
(§2) Light microscopy was performed in order to determine whether cell death, induced by B. saligna and the DT-BS-01 was mediated through apoptosis (FIG. 2 and FIG. 3). Apoptosis is described as a programmed cell death in which biochemical and morphological changes occur within the cells. […]

HaCat cells [3] = experiment: as above; type: cell-based, human; details: 0.025 μg/ml, 48 h
Description: as §1, §2

[4] = tested on: UCT-MEL-1 (human pigmented melanoma) cells; experiment: XTT antiproliferative assay, human melanoma cells; type: cell-based; details: HaCat versus UCT-MEL-1 IC50
Description: To investigate the antiproliferative potential of B. saligna and DT-BS-01, the XTT assay was performed. Antiproliferative activity was measured using the method as described by Berrington and Lall (2012) using the XTT Cell Proliferation Kit II. Cells were seeded at a concentration of 1.0×10^6 cells/ml in 96-well plates (100 μl) and allowed to adhere for 24 h. The B. saligna extract and DT-BS-01 were prepared at stock concentrations of 20 mg/ml, serially diluted and added to the 96-well plates at final concentrations ranging from 1.56-200 μg/ml. […] Cells were incubated for a further 72 h with the respective samples and controls. […] Blank plates were included which were prepared in the same manner as mentioned above, without the additional of cell, to allow for colour compensation of the samples. The samples were tested in triplicate and the percentage cell viability was calculated using the following equation. […] Where Abscontrol is the absorbance of XTT+vehicle control and Absample is the absorbance of (XTT+sample OR positive control)-(blank values of corresponding sample). […] The XTT colorimetric assay is based on the ability of viable metabolically active cells to convert a yellow tetrazolium salt to an orange formazan dye. […]

UCT-MEL-1 cells [5] = experiment: Flow cytometry apoptosis detection (Annexin V / 7-AAD); type: cell-based, human; details: 0.025 μg/ml, 48 h
Text: (§3) Phosphatidylserine (PS) is a lipid, which is present in the inner leaflet of the plasma membrane. The early stages of apoptosis are characterized by an asymmetric membrane due to the translocation of the PS lipid from the inner membrane leaflet to the outer leaflet. Once exposed to the outer cellular environment, Annexin V, which has a high affinity for PS, is able to bind to it. After the early stages of apoptosis have taken place, the plasma membrane integrity starts to disintegrate thereby allowing the uptake of 7-AAD into the cell, which is associated with late apoptosis or necrosis. […] Using Annexin V and 7-AAD staining can therefore, not distinguish between late apoptosis or necrosis, however can characterize early apoptosis. The degree of apoptosis was thus measured using the Annexin V-FITC apoptosis detection kit. […] Actinomycin D (0.025 μg/ml) was used as a positive control for apoptosis to occur. Other controls included a medium (untreated) and 0.25% DMSO vehicle control. […] An additional 400 μl binding buffer was added to each culture tube and the fluorescence was measured using an Accuri C6 flow cytometer (BD Biosciences, San Jose, CA, USA). Data from at least 10,000 cells were analyzed using the BD Accuri C6 software.

HaCat cells [6] = experiment: as above; type: cell-based, human; details: 0.025 μg/ml, 48 h
Text: as §3

[7] = Nitric oxide scavenging activity (Griess reaction)
Description: Briefly, 90 μl of distilled water was added to the top row of a 96-well microtitre plate and 50 μl to the rest of the wells in the plate. […] Ethanol was used as the negative control. To each well 50 μl sodium nitroprusside (10 mM) was added and the plates were incubated at room temperature for 90 min. Thereafter, 100 μl Griess reagent was added to all the wells, except for the blank plates where distilled water was added. […] All samples were tested in triplicate. The percentage inhibition of the samples was calculated using the below equation.
Where Abscontrol is the absorbance of NO radical+ethanol control; Absample is the absorbance of (NO radical+sample OR positive control)−(blank values of corresponding sample). The IC50 values for each sample were calculated using GraphPad Prism 4 software.

SK-MEL-2 melanoma = details: SK-MEL-2 CAM model; Caunii et al., 2017; cited from earlier work
[8] = tested on: vascular endothelial growth factor (VEGF); experiment: Quantification of in vitro VEGF in HaCat cells (ELISA); type: cell-based; details: Homo sapiens, 6 μg/ml, 6 h, read-out: inhibition of VEGF production
Description: (§4) Exponentially growing UCT-MEL-1 and HaCat cells were seeded at a concentration of 1.0×10^5 cells/well in a 24-well plate with complete medium to allow for cell adherence. After 24 h, the medium was removed and replaced with fresh complete medium. Stock concentrations of the B. saligna extract and DT-BS-01 were prepared at 1 mg/ml. The cells were treated with final concentrations of the B. saligna at 30 and 60 μg/ml; and DT-BS-01 at 5 and 20 μg/ml. Controls included a 0.15% DMSO vehicle control, cells grown in medium only and cells exposed to the positive control, ursolic acid at final concentrations of 6 μg/ml. After 6 h of treatment, the plates were centrifuged at 980 rpm for 10 min and the supernatant collected for quantification of VEGF using an ELISA kit (ThermoFisher Scientific, Johannesburg, South Africa) (Thermo Fisher, 2017). The cells viability was further determined using XTT at a final concentration of 0.3 mg/ml. The quantification of VEGF was performed according to the manufacturer's protocol (Novex® Cat #KHG0111) using a VEGF standard curve.

in vitro = type: cell-based; details: human
Description: as §4
The levels of VEGF secreted by UCT-MEL-1 and HaCat cells were determined after 6 h incubation with B. saligna and DT-BS-01. […] The HaCat cell viability was determined after treatment with the various samples and controls in order to determine whether inhibition of VEGF could have been due to a decrease in cell viability. […]

SMILES: Cc1c2oc3c(C)ccc(C(=O)N[C@@H]4C(=O)N[C@H](C(C)C)C(=O)N5CCC[C@H]5C(=O)N(C)CC(=O)N(C)[C@@H](C(C)C)C(=O)O[C@@H]4C)c3nc-2c(C(=O)N[C@@H]2C(=O)N[C@H](C(C)C)C(=O)N3CCC[C@H]3C(=O)N(C)CC(=O)N(C)[C@@H](C(C)C)C(=O)O[C@@H]2C)c(N)c1=O [Actinomycin D] (I: T[dV]P[Sar][NMeV] / II: T[dV]P[Sar][NMeV]; ester I:1-I:C, II:1-II:C; linker I:N-II:N via Actinocin(9to1))
IC50 on HaCat cells [1]: 0.0092 ± 6.88e-05 µg/mL (≈ 7.33 nM)
cell morphology, UCT-MEL-1 (UCT-MEL-1 cells [2]): displayed characteristic signs of apoptosis
cell morphology, HaCat (HaCat cells [3]): displayed characteristic signs of apoptosis
selectivity index (SI) [4]: 3.83
cells in late apoptosis, UCT-MEL-1 (UCT-MEL-1 cells [5]): 99.2%
cells in late apoptosis, HaCat (HaCat cells [6]): 90.6%

NO IC50 ± SD ([7]; NO radical scavenging): 62.46 ± 0.46 µg/mL
SMILES: O=C1O[C@H]([C@@H](O)CO)C(O)=C1O [ascorbic acid]
NO radical scavenging activity ([7]; 500 μg/ml): 75.70±0.15%

SMILES: CC1(C)CC[C@]2(C(=O)O)CC[C@]3(C)C(=CC[C@@H]4[C@@]5(C)CC[C@H](O)C(C)(C)[C@@H]5CC[C@]43C)[C@@H]2C1 [oleanolic acid]
angiogenic potential / capillary density in CAM (SK-MEL-2 melanoma): able to reduce the angiogenic potential

SMILES: C[C@H]1[C@H](C)CC[C@]2(C(=O)O)CC[C@]3(C)C(=CC[C@@H]4[C@@]5(C)CC[C@H](O)C(C)(C)[C@@H]5CC[C@]43C)[C@H]12 [ursolic acid]
inhibition at 6 µg/mL [8]: 16 ± 0.93%
angiogenic potential / capillary density in CAM (SK-MEL-2 melanoma): did not inhibit the density of the capillaries
viability at 6 h, 6 μg/ml (in vitro): 96 ± 3.62%
